According to PubChem BioAssay (NCI):
Values joined by “and” are separate entries in the source; they are usually repeats but may differ in a detail not shown here. Equal values may be shown once.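 Tested at 5 concentrations; 48 h exposure; 96-well plates; endpoints linearly interpolated, else capped at highest concentration. GI50 = concentration required for 50% inhibition of growth. TGI: total growth inhibition.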

How the values were obtained:
Assay in all cases: NCI-60 cell line screen, 48 h
[1] = tested on: U251 CNS
[2] = tested on: MALME-3M melanoma
[3] = tested on: NCI-H460 lung
[4] = tested on: T-47D breast
[5] = tested on: HL-60(TB) leukemia
[6] = tested on: SF-268 CNS
[7] = tested on: HOP-62 NSCLC
[8] = tested on: A549 NSCLC
[9] = tested on: PC-3 prostate
[10] = tested on: OVCAR-5 ovarian

## CN(C)CCNC(=O)c1ccc(NC(=O)c2nc([N+](=O)[O-])cn2C)cc1
[1]
  TGI: > 100 µM
[2]
  TGI: > 100 µM
[3]
  TGI: > 100 µM
[4]
  TGI: > 100 µM
[5]
  TGI: > 100 µM
[6]
  TGI: > 100 µM
[7]
  TGI: > 100 µM
[8]
  TGI: > 100 µM
[9]
  TGI: > 100 µM
[10]
  TGI: > 100 µM

## Cc1cnc(C(=O)Nc2nc3ccc(S(=O)(=O)Nc4ccc(C5(C(F)(F)F)CC5)cc4)cc3[nH]2)cn1
[1]
  GI50: 0.57 µM
  TGI: 5.4 µM
[2]
  GI50: 0.345 µM
  TGI: 8.65 µM
[3]
  GI50: 0.351 µM
  TGI: 3.95 µM
[4]
  GI50: 0.596 µM
  TGI: 17.2 µM
[5]
  GI50: 0.296 µM
  TGI: 0.924 µM
[6]
  GI50: 0.733 µM
  TGI: 11.9 µM
[7]
  GI50: 0.622 µM
  TGI: 6.71 µM
[8]
  GI50: 0.57 µM
  TGI: 9.66 µM
[9]
  GI50: 0.311 µM
  TGI: 4.39 µM
[10]
  GI50: 0.785 µM
  TGI: 10.9 µM

## CC(C)CC(NC(=O)OC(C)(C)C)C(=O)Nc1ccc(Nc2nc(F)nc(-c3c4ccccc4cn3C)n2)cc1 (stereo not given)
[1]
  TGI: > 46.4 µM
[2]
  TGI: > 100 µM
[3]
  TGI: > 100 µM
[4]
  TGI: > 100 µM
[5]
  TGI: 33 µM
[6]
  TGI: > 100 µM
[7]
  TGI: 42.6 µM
[8]
  TGI: > 100 µM
[9]
  TGI: > 100 µM
[10]
  TGI: > 100 µM

## O=C1CCc2c(sc3[nH]c(=S)n(Cc4ccc(Cl)cc4)c(=O)c23)C1
[1]
  GI50: 0.377 µM
  TGI: 18 µM
[2]
  GI50: 0.972 µM
  TGI: 3.9 µM
[3]
  GI50: 0.377 µM
  TGI: 3.7 µM
[4]
  GI50: 0.377 µM
  TGI: 3.59 µM
[5]
  GI50: 0.347 µM
  TGI: 1.81 µM
[6]
  GI50: 0.442 µM
  TGI: > 100 µM
[7]
  GI50: 1.47 µM
  TGI: > 100 µM
[8]
  GI50: 0.497 µM
  TGI: 16.6 µM
[9]
  GI50: 0.309 µM
  TGI: > 35.8 µM
[10]
  GI50: 0.743 µM
  TGI: 3.6 µM

## O=C1C(Cl)=C(NCc2ccco2)C(=O)c2ccccc21
[1]
  GI50: 17 µM
  TGI: > 93.7 µM
[2]
  GI50: 2.03 µM
  TGI: 4.37 µM
[3]
  GI50: 4.78 µM
  TGI: > 100 µM
[4]
  GI50: 10.2 µM
  TGI: 73.7 µM
[5]
  GI50: 7.63 µM
  TGI: > 76.9 µM
[6]
  GI50: 22.5 µM
  TGI: 81.9 µM
[7]
  GI50: 17.1 µM
  TGI: 43.6 µM
[8]
  GI50: 7.61 µM
  TGI: 31.1 µM
[9]
  GI50: 33.6 µM
  TGI: > 100 µM
[10]
  GI50: 33.8 µM
  TGI: > 65.1 µM

## O=C1c2ccccc2-c2c1c1ccccc1c(=O)n2CCCn1ccnc1
[1]
  GI50: 0.793 µM
  TGI: 6.83 µM
[2]
  GI50: 2.45 µM
  TGI: 5.75 µM
[3]
  GI50: 1.17 µM
  TGI: 10.4 µM
[4]
  GI50: 3.28 µM
  TGI: > 100 µM
[5]
  GI50: 0.2 µM
  TGI: 2.18 µM
[6]
  GI50: 3.64 µM
  TGI: > 100 µM
[7]
  GI50: 2.72 µM
  TGI: 13 µM
[8]
  GI50: 1.87 µM
  TGI: 4.74 µM
[9]
  GI50: 2.04 µM
  TGI: > 100 µM
[10]
  GI50: 3.05 µM
  TGI: 53.6 µM

## NCCCNCCCCNC(=O)C(O)NC(=O)CCCCCCN=C(N)N (stereo not given)
[1]
  GI50: 2080 µM
  TGI: 636 µM and > 4540 µM
[2]
  GI50: 1920 µM
  TGI: 628 µM and 3050 µM
[3]
  GI50: > 2770 µM
  TGI: 750 µM and > 5000 µM
[4]
  GI50: 2130 µM
  TGI: > 5000 µM
[5]
  GI50: 2500 µM
  TGI: > 4090 µM
[6]
  GI50: 3070 µM
  TGI: > 5000 µM
[7]
  GI50: 3470 µM
  TGI: 750 µM and > 5000 µM
[8]
  GI50: 1640 µM
  TGI: 750 µM and > 5000 µM
[9]
  GI50: 1590 µM
  TGI: > 5000 µM
[10]
  GI50: > 3010 µM
  TGI: > 5000 µM

## Cc1cc(C)c(-n2c(-c3ccc(Br)cc3)cs/c2=N\N=C2C=C(C(C)(C)C)C(=O)C(C(C)(C)C)=C2)c(C)c1
[1]
  TGI: > 100 µM
[2]
  TGI: > 100 µM
[3]
  TGI: > 100 µM
[4]
  TGI: > 100 µM
[5]
  TGI: > 100 µM
[6]
  TGI: > 100 µM
[7]
  TGI: > 78.6 µM
[8]
  TGI: > 100 µM
[9]
  TGI: > 100 µM
[10]
  TGI: > 100 µM

## O=C(/C=C/c1ccc(C(F)(F)F)cc1)c1ccc(Nc2nc(NCCO)nc(Nc3ccc(Cl)cc3)n2)cc1
[1]
  GI50: 2.18 µM
  TGI: 5.57 µM
[2]
  GI50: 13.9 µM
  TGI: 28.5 µM
[3]
  GI50: 4 µM
  TGI: 13.6 µM
[4]
  GI50: 3.4 µM
  TGI: 26.6 µM
[5]
  GI50: 12.2 µM
  TGI: 51.8 µM
[6]
  GI50: 5.05 µM
  TGI: 18.7 µM
[7]
  GI50: 8.55 µM
  TGI: 22 µM
[8]
  GI50: 3.48 µM
  TGI: 13.5 µM
[9]
  GI50: 2.99 µM
  TGI: 15 µM
[10]
  GI50: 5.93 µM
  TGI: 18.8 µM

## O=C1c2ccccc2S(=O)(=O)c2cc(-c3nn[nH]n3)ccc21
[1]
  TGI: > 100 µM
[2]
  TGI: > 100 µM
[3]
  TGI: > 100 µM
[4]
  TGI: > 100 µM
[5]
  TGI: > 100 µM
[6]
  TGI: > 100 µM
[7]
  TGI: > 100 µM
[8]
  TGI: > 100 µM
[9]
  TGI: > 100 µM
[10]
  TGI: > 100 µM
